Target: c-kit WT (Homo sapiens (Human), UniProt P10721)
Experiment: Proliferation assay (CellTiter-Blue) on BaF3 Kit WT cell line
Type: cell-based
Settings: BaF3 Kit WT cell line (murine Ba/F3 expressing Human Kit WT, with murine SCF), 48 hours
Experimental: Procedures of C-Kit WT Inhibition Assays:
Colorimetric cell proliferation and viability assay (reagent CellTiter-Blue purchased from Promega cat N°G8081) was performed on BaF3 Kit WT cell line.
A total of 2.10^4 cells/50 μl were seeded per well of a 96-wells plate. Treatment was initiated by addition of a 2× drug solution of ½ serial dilutions ranging from 0 to 10 μM. After incubating for 48 hours at 37° C., 10 μl of a ½ dilution of CellTiter-Blue reagent was added to each well and the plates were returned to the incubator for an additional 4 hours. The fluorescence intensity from the CellTiter-Blue reagent is proportional to the number of viable cells and data were recorded (544Ex/590Em) using a POLARstar OMEGA microplate reader (BMG LabteckSarl). A background control without cells was used as a blank. The positive control of the assay corresponds to the cell proliferation obtained in the absence of drug treatment (100% proliferation). Each sample was done in triplicate. The results were expressed as a percentage of the proliferation obtained in absence of treatment. All drugs were prepared as 20 mM stock solutions in DMSO and conserved at −80° C. Drug dilutions were made fresh in medium before each experiment. A DMSO control was included in each experiment.
The cell line expressing Human Kit WT was derived from the murine IL3-dependent Ba/F3 proB lymphoid cells. Ba/F3 Kit WT cells were maintained in RPMI medium containing 10% FCS and supplemented with 250 ng/ml of recombinant murine SCF.

c-kit WT, sequence (P10721 26-976): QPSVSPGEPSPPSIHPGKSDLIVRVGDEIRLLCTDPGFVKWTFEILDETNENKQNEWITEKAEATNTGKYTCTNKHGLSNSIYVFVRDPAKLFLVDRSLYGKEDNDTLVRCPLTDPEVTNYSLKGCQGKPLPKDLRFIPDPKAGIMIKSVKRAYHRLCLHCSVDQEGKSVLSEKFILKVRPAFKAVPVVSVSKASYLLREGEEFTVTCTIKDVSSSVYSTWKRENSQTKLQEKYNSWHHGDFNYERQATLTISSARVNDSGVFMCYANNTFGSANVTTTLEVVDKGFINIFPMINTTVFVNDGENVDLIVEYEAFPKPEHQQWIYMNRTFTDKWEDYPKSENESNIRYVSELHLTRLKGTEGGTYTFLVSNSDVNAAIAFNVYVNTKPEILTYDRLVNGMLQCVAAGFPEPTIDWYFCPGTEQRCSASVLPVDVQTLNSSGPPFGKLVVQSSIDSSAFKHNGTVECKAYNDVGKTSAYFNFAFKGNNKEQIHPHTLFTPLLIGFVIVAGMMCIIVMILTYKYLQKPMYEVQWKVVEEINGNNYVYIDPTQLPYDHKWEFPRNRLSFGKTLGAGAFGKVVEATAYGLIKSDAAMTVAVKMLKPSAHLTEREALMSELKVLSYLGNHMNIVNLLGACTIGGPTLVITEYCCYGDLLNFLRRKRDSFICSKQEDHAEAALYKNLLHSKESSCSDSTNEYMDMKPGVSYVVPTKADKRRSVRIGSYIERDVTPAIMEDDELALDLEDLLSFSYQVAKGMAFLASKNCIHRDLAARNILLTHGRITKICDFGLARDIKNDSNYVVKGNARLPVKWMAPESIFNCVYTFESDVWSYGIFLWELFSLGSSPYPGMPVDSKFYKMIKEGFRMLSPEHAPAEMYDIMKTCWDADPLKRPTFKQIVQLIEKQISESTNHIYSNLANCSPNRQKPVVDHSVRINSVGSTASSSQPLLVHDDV

SMILES | IC50 [µM]
Cc1cc2nc(-c3cccc(OCCN(C)C)c3)[nH]c2cc1Nc1nccc(-c2cccnc2)n1 [Compound 016, {2-[3-(2-Dimethylamino-ethoxy)-phenyl]-6-methyl-3H-benzoimidazo1-5-yl}-(4-pyridin-3-yl-pyrimidin-2-yl)-amine] | 1 to 10
Cc1cc2nc(-c3cnc4ccccc4c3)[nH]c2cc1Nc1nccc(-c2cccnc2)n1 [Compound 017, (6-Methyl-2-quinolin-3-yl-3H-benzoimidazol-5-yl)-(4-pyridin-3-yl-pyrimidin-2-yl)-amine] | 1 to 10
Cc1cc2nc(-c3cccc(CN4CCOCC4)c3)[nH]c2cc1Nc1nccc(-c2cccnc2)n1 [Compound 018, [6-Methyl-2-(3-morpholin-4-ylmethyl-phenyl)-3H-benzoimidazol-5-yl]-(4-pyridin-3-yl-pyrimidin-2-yl)-amine] | 1 to 10
Cc1cc2nc(-c3cccc(F)c3)[nH]c2cc1Nc1nccc(-c2cccnc2)n1 [Compound 019, [2-(3-Fluoro-phenyl)-6-methyl-3H-benzoimidazol-5-yl]-(4-pyridin-3-yl-pyrimidin-2-yl)-amine] | 1 to 10
Cc1cc2nc(-c3cc(CN4CCOCC4)cc(C(F)(F)F)c3)[nH]c2cc1Nc1nc(-c2cccnc2)cs1 [Compound 020, [6-Methyl-2-(3-morpholin-4-ylmethyl-5-trifluoromethyl-phenyl)-3H-benzoimidazol-5-yl]-(4-pyridin-3-yl-thiazol-2-yl)-amine] | ≤ 1
Cc1cc2nc(-c3ccc(C(F)(F)F)cc3)[nH]c2cc1Nc1nc(-c2cccnc2)cs1 [Compound 021, [6-Methyl-2-(4-trifluoromethyl-phenyl)-3H-benzoimidazol-5-yl]-(4-pyridin-3-yl-thiazol-2-yl)-amine] | 1 to 10
Cc1cc2nc(Cc3ccccc3)[nH]c2cc1Nc1nc(-c2cccnc2)cs1 [Compound 022, (2-Benzyl-6-methyl-3H-benzoimidazol-5-yl)-(4-pyridin-3-yl-thiazol-2-yl)-amine] | 1 to 10
Cc1cc2nc(-c3cc(CN4CCCC4)cc(C(F)(F)F)c3)[nH]c2cc1Nc1nc(-c2cccnc2)cs1 [Compound 023, [6-Methyl-2-(3-pyrrolidin-1-ylmethyl-5-trifluoromethyl-phenyl)-3H-benzoimidazol-5-yl]-(4-pyridin-3-yl-thiazol-2-yl)-amine] | 1 to 10
Cc1cc2nc(-c3cc(CN4CCCCC4)cc(C(F)(F)F)c3)[nH]c2cc1Nc1nc(-c2cccnc2)cs1 [Compound 024, [6-Methyl-2-(3-piperidin-1-ylmethyl-5-trifluoromethyl-phenyl)-3H-benzoimidazol-5-yl]-(4-pyridin-3-yl-thiazol-2-yl)-amine] | ≤ 1
Cc1cc2nc(-c3cccc(C(F)F)c3)[nH]c2cc1Nc1nc(-c2cccnc2)cs1 [Compound 025, [2-(3-Difluoromethyl-phenyl)-6-methyl-3H-benzoimidazol-5-yl]-(4-pyridin-3-yl-thiazol-2-yl)-amine] | ≤ 1
Cc1cc2nc(-c3cccc(OC(F)(F)F)c3)[nH]c2cc1Nc1nc(-c2cccnc2)cs1 [Compound 026] | ≤ 1
Cc1cc2nc(-c3ccc(C(F)(F)F)cc3)[nH]c2cc1Nc1nccc(-c2cccnc2)n1 [Compound 027, [6-Methyl-2-(4-trifluoromethyl-phenyl)-3H-benzoimidazol-5-yl]-(4-pyridin-3-yl-pyrimidin-2-yl)-amine] | 1 to 10
Cc1cc2nc(-c3cc(CN4CCOCC4)cc(C(F)(F)F)c3)[nH]c2cc1Nc1nccc(-c2cccnc2)n1 [Compound 028] | ≤ 1
Cc1cc2nc(-c3cc(CN4CCCC4)cc(C(F)(F)F)c3)[nH]c2cc1Nc1nccc(-c2cccnc2)n1 [Compound 029, [6-Methyl-2-(3-pyrrolidin-1-ylmethyl-5-trifluoromethyl-phenyl)-3H-benzoimidazol-5-yl]-(4-pyridin-3-yl-pyrimidin-2-yl)-amine] | ≤ 1
Cc1cc2nc(-c3cccc(C(F)F)c3)[nH]c2cc1Nc1nccc(-c2cccnc2)n1 [Compound 030, [2-(3-Difluoromethyl-phenyl)-6-methyl-3H-benzoimidazol-5-yl]-(4-pyridin-3-yl-pyrimidin-2-yl)-amine] | ≤ 1
Cc1cc2nc(-c3cccc(Cl)c3)[nH]c2cc1Nc1nccc(-c2cccnc2)n1 [Compound 031, [2-(3-Chloro-phenyl)-6-methyl-3H-benzoimidazol-5-yl]-(4-pyridin-3-yl-pyrimidin-2-yl)-amine] | ≤ 1

SMILES | IC50 [µM]
Cc1cc2nc(-c3cccc(Cl)c3)[nH]c2cc1Nc1nc(-c2cccnc2)cs1 [Compound 032, [2-(3-Chloro-phenyl)-6-methyl-3H-benzoimidazol-5-yl]-(4-pyridin-3-yl-thiazol-2-yl)-amine] | ≤ 1
Cc1cc2nc(-c3cccc(C(F)(F)F)c3)[nH]c2cc1Nc1nc(-c2ccncc2)cs1 [Compound 033, [6-Methyl-2-(3-trifluoromethyl-phenyl)-3H-benzoimidazol-5-yl]-(4-pyridin-4-yl-thiazol-2-yl)-amine] | ≤ 1
Cc1cccc(-c2nc3cc(C)c(Nc4nc(-c5ccncc5)cs4)cc3[nH]2)c1 [Compound 034, (6-Methyl-2-m-tolyl-3H-benzoimidazol-5-yl)-(4-pyridin-4-yl-thiazol-2-yl)-amine] | ≤ 1
Cc1cc2nc(-c3cc(CN4CCCCC4)cc(C(F)(F)F)c3)[nH]c2cc1Nc1nccc(-c2cccnc2)n1 [Compound 035, [6-Methyl-2-(3-piperidin-1-ylmethyl-5-trifluoromethyl-phenyl)-3H-benzoimidazol-5-yl]-(4-pyridin-3-yl-pyrimidin-2-yl)-amine] | ≤ 1
Cc1cc2nc(-c3cc(C(C)(C)C)ccc3OCCN(C)C)[nH]c2cc1Nc1nccc(-c2cccnc2)n1 [Compound 036, {2-[5-tert-Butyl-2-(2-dimethylamino-ethoxy)-phenyl]-6-methyl-3H-benzoimidazol-5-yl}-(4-pyridin-3-yl-pyrimidin-2-yl)-amine] | 1 to 10
Cc1cc2nc(-c3cccc(OC(F)(F)F)c3)[nH]c2cc1Nc1nccc(-c2cccnc2)n1 [Compound 037, [6-Methyl-2-(3-trifluoromethoxy-phenyl)-3H-benzoimidazol-5-yl]-(4-pyridin-3-yl-pyrimidin-2-yl)-amine] | 1 to 10
Cc1cc2nc(-c3cccc(S(C)(=O)=O)c3)[nH]c2cc1Nc1nccc(-c2cccnc2)n1 [Compound 038, [2-(3-Methanesulfonyl-phenyl)-6-methyl-3H-benzoimidazol-5-yl]-(4-pyridin-3-yl-pyrimidin-2-yl)-amine] | 1 to 10
Cc1cc2nc(-c3cc(CN4CCN(C)CC4)cc(-c4cnco4)c3)[nH]c2cc1Nc1nccc(-c2cccnc2)n1 [Compound 039, {6-Methyl-2-[3-(4-methyl-piperazin-1-ylmethyl)-5-oxazol-5-yl-phenyl]-3H-benzoimidazol-5-yl}-(4-pyridin-3-yl-pyrimidin-2-yl)-amine] | 1 to 10
Cc1cc2nc(-c3cc(CN4CCN(C)CC4)cc(C(F)(F)F)c3)[nH]c2cc1Nc1nccc(-c2cccnc2)n1 [Compound 040, {6-Methyl-2-[3-(4-methyl-piperazin-1-ylmethyl)-5-trifluoromethyl-phenyl]-3H-benzoimidazol-5-yl}-(4-pyridin-3-yl-pyrimidin-2-yl)-amine] | 1 to 10
Cc1cc2nc(-c3ccc(C)c(C(F)(F)F)c3)[nH]c2cc1Nc1nccc(-c2cccnc2)n1 [Compound 041, [6-Methyl-2-(4-methyl-3-trifluoromethyl-phenyl)-3H-benzoimidazol-5-yl]-(4-pyridin-3-yl-pyrimidin-2-yl)-amine] | ≤ 1
Cc1cc2nc(-c3cncc(C(F)(F)F)c3)[nH]c2cc1Nc1nccc(-c2cccnc2)n1 [Compound 042, [6-Methyl-2-(5-trifluoromethyl-pyridin-3-yl)-3H-benzoimidazol-5-yl]-(4-pyridin-3-yl-pyrimidin-2-yl)-amine] | 1 to 10
Cc1cc2nc(-c3cccc(CN4CCN(C)CC4)c3)[nH]c2cc1Nc1nccc(-c2cccnc2)n1 [Compound 043, {6-Methyl-2-[3-(4-methyl-piperazin-1-ylmethyl)-phenyl]-3H-benzoimidazol-5-yl}-(4-pyridin-3-yl-pyrimidin-2-yl)-amine] | 1 to 10
Cc1cc2nc(-c3cccc(CN4CCN(C)CC4)c3)[nH]c2cc1Nc1nc(-c2cccnc2)cs1 [Compound 044, {6-Methyl-2-[3-(4-methyl-piperazin-1-ylmethyl)-phenyl]-1H-benzoimidazol-5-yl}-(4-pyridin-3-yl-thiazol-2-yl)-amine] | 1 to 10
Cc1cc2nc(-c3cccc(C(F)F)c3)[nH]c2cc1Nc1nc(-c2ccncc2)cs1 [Compound 045, [2-(3-Difluoromethyl-phenyl)-6-methyl-3H-benzoimidazol-5-yl]-(4-pyridin-4-yl-thiazol-2-yl)-amine] | ≤ 1
Cc1cc2nc(-c3cccc(CN4CCN(C)CC4)c3)[nH]c2cc1Nc1nc(-c2ccncc2)cs1 [Compound 046, {6-Methyl-2-[3-(4-methyl-piperazin-1-ylmethyl)-phenyl]-1H-benzoimidazol-5-yl}-(4-pyridin-4-yl-thiazol-2-yl)-amine] | 1 to 10
Cc1cc2nc(-c3cccc(OC(F)(F)F)c3)[nH]c2cc1Nc1nc(-c2ccncc2)cs1 [Compound 047, [6-Methyl-2-(3-trifluoromethoxy-phenyl)-3H-benzoimidazol-5-yl]-(4-pyridin-4-yl-thiazol-2-yl)-amine] | ≤ 1

Source: patent publication US10202370B2, “Benzimidazole derivatives as selective proteine kinase inhibitors” (AB SCIENCE, priority 2013, dated 2019)
